Each structure is given as a SMILES string.

A short description of this data set: gradient 5% acetonitrile 3 min, to 50% in 2 min, to 85% in 15 min, held 3 min, 100 µL/min. Conditions: column: Zorbax Extend-C18 2.1 x 50 mm; eluents: water / acetonitrile, 0.1% formic acid. A digest of the protocol:
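Retention times come from adduct peaks that were picked computationally and then checked by hand. The standards, pure and pooled in mixtures of ~100 molecules, were run on a Zorbax Extend-C18 column (2.1 × 50 mm, 1.8 μm) at 100 μL/min with water and acetonitrile, each with 0.1% formic acid. Detection was by quadrupole time-of-flight mass spectrometry in positive and negative ionization mode, with a dead volume of 40 μL and a dwell volume of 900 μL.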
Molecule `CCC(NC(=O)C1CCN(c2cnc3nccnc3c2)CC1)c1cccs1` (centres undefined) displayed an RP-LC retention time of 702 s.

As to `CCNC(=O)c1cn(-c2ccc(NC(=O)CC(C)C)cn2)cn1`, the RP-LC retention time was 658 s.

In the case of `Cn1cc(CCNS(=O)(=O)c2ccc(Br)s2)c2cccnc21`, the RP-LC retention time was found to be 779 s.

For the molecule `O=S(=O)(c1ccc(Br)cc1)N1CCCC(COCc2ccccc2)C1` (centres undefined), the RP-LC retention time was 1220 s.

`CC1Cn2cc(C(=O)NCCCN3CCOCC3)c(=O)c3c(Cl)ccc(c32)O1` (centres undefined) showed an RP-LC retention time of 624 s.

As for `CCCNC(=O)c1cc2c(s1)N(CC1CC1)CCCC2`, the RP-LC retention time came to 1020 s.

Regarding `CN(C)S(=O)(=O)c1ccc2c(c1)N(CC(=O)NCc1ccc(F)cc1)C(=O)C1CCCCN21` (centres undefined), the RP-LC retention time came to 896 s.

The molecule `Cc1cc2c(cc1S(=O)(=O)N1CCCC1C(=O)NCc1ccccc1)OCC(=O)N2` (centres undefined) displayed an RP-LC retention time of 721 s.

`CC(Cc1cccs1)NC(=O)NCc1cccc2ccccc12` (centres undefined) gave an RP-LC retention time of 881 s.

`CCOC(=O)c1c(S(=O)(=O)NCc2ccc3c(c2)OCO3)n[nH]c1CC`: the RP-LC retention time turned out to be 718 s.

As for `Cc1sc(NC(=O)Cn2c(=O)sc3ccccc32)nc1-c1ccccc1`, the RP-LC retention time was 980 s.

In the case of `Cc1ccc(C)c(Nc2nc(-c3ccncc3)nc3ccccc23)c1`, the RP-LC retention time amounted to 772 s.

On to `CC1=C(c2ccc(F)cc2)S(=O)(=O)N=C1N1CCCN(C(=O)Cc2ccsc2)CC1`, for which the RP-LC retention time turned out to be 812 s.

Molecule `O=C(CCSc1ccccc1)NCCn1cnc(-c2ccc(F)cc2)cc1=O` returned an RP-LC retention time of 759 s.

Regarding `CCOC(=O)C1CCC(CNC(=O)N2CCN(Cc3nc4cc(C)ccc4o3)CC2)CC1` (centres undefined), the RP-LC retention time was 735 s.

`O=C(c1cn2ccnc(-c3ccc(F)cc3)c2n1)N1CCN(C(=O)c2ccco2)CC1` returned an RP-LC retention time of 693 s.

`CCCOc1nc2ccccc2nc1N1CCCC(C(=O)Nc2cccc(OC)c2)C1` (centres undefined) gave an RP-LC retention time of 1260 s.

`Cn1c(C(=O)N2CCN(c3ccccn3)CC2)cc2cc(S(=O)(=O)N3CCCCC3)ccc21` displayed an RP-LC retention time of 699 s.

Regarding `CCOc1ccc(NC(=O)Nc2nccn(-c3ccc(OC)cc3)c2=O)cc1`, the RP-LC retention time amounted to 935 s.

Molecule `COc1ccc(-c2cn3c(CC(=O)N4CCN(c5ccc(F)cc5)CC4)csc3n2)cc1OC` came in with an RP-LC retention time of 743 s.

In turn, `Cc1ccc(C(=O)N2CCC(c3nc(C4CC4)n[nH]3)CC2)s1` yielded an RP-LC retention time of 600 s.

The molecule `Cc1cc(N2CCN(C(=O)c3ccco3)CC2)nc(N2CCCCC2)n1` gave an RP-LC retention time of 626 s.

Molecule `O=C(CN1C(=O)CC(c2ccco2)Sc2ccccc21)Nc1ccccc1C(F)(F)F` (centres undefined) registered an RP-LC retention time of 899 s.

Take `Cc1cc(N2CCCCC2)nc(N2CCN(C(=O)c3ccc(-c4ccccc4)cc3)CC2)n1`: the RP-LC retention time is 837 s.

Take `CCOCCCNC(=O)C1CCN(c2cc(=O)n(C)c(=O)n2CC)CC1`: the RP-LC retention time was 686 s.

With `Cc1ccc(-c2[nH]c3[nH]c(=O)[nH]c(=O)c3c2C2C(=O)N(C)c3ccccc32)cc1` (centres undefined), the RP-LC retention time was found to be 696 s.

In turn, `CCCn1nnc(NCc2ccc(-c3ccc(Br)cc3Cl)o2)n1` registered an RP-LC retention time of 1230 s.

The molecule `CC1Oc2ccc(S(=O)(=O)N3CCC(C(=O)N4CCN(c5ccccc5)CC4)CC3)cc2NC1=O` (centres undefined) came in with an RP-LC retention time of 848 s.

As for `CCc1cc2c(N3CCCC(C(=O)NCCCN4CCN(CC)CC4)C3)ncnc2s1` (centres undefined), the RP-LC retention time was 579 s.

Regarding `COc1ccc(OC)c(CNC(=O)c2c(N3CCCC3=O)c3cc(OC)ccc3n2C)c1`, the RP-LC retention time was determined as 849 s.

As for `CCc1nc(-c2csc(S(=O)(=O)N3CCCC(C(=O)Nc4ccccc4C)C3)c2)no1` (centres undefined), the RP-LC retention time stood at 1010 s.

As to `CCOC(=O)c1noc2ncnc(N(Cc3ccccc3OC)C3CCN(C)CC3)c12`, the RP-LC retention time came to 667 s.

`O=c1n(Cc2ccccc2)nc2ccc(S(=O)(=O)N3CCCCC3)cn12` yielded an RP-LC retention time of 910 s.

Molecule `Cc1oc(C2CCN(C(=O)Nc3ccc4c(c3)CCC4)CC2)nc1C(=O)N(C)C` displayed an RP-LC retention time of 766 s.

Regarding `O=C(c1csc(C(=O)N2CCCC2)n1)N1CCN(Cc2ccccc2)CC1`, the RP-LC retention time is 603 s.

In turn, `COc1ccc(S(=O)(=O)NCc2ccc3c(c2)CCN3C(=O)CC(C)C)cc1OC` had an RP-LC retention time of 858 s.

With `COc1ccc(N2C(=O)C3(CCCCC3)C2C(=O)N(C)C)cc1` (centres undefined), the RP-LC retention time amounted to 750 s.

For the molecule `Cc1oc(C2CCN(S(=O)(=O)CCc3ccccc3)CC2)nc1C(=O)N1CCCCC1`, the RP-LC retention time turned out to be 943 s.

`Cc1ccccc1OCc1nc(CCN(C)C(=O)c2ccc(Br)o2)no1` yielded an RP-LC retention time of 951 s.

Molecule `CCOc1cccc2c1OC1(C)CC2NC(=O)N1c1cccc(C(=O)NCc2ccccn2)c1` (centres undefined) had an RP-LC retention time of 607 s.

Molecule `Cc1nc2cc(-c3noc(-c4ccc5c(c4)OCO5)n3)ccc2n(C)c1=O` displayed an RP-LC retention time of 920 s.

As for `CCCn1c(-c2cccc(C(=O)NC(CC)c3cccs3)c2)nc2cccnc21` (centres undefined), the RP-LC retention time came out at 886 s.

The molecule `COc1cccc(CC(=O)N2CCC3(CC2)NC(=O)c2ccc(Cl)cc2N3)c1` registered an RP-LC retention time of 790 s.

`COC(=O)c1c(C)[nH]c(C(=O)N2CCC(CC(=O)NCc3ccc(Cl)cc3)CC2)c1C` displayed an RP-LC retention time of 774 s.

Molecule `CCOC(=O)C(=O)Cc1nc2ccccc2s1` returned an RP-LC retention time of 871 s.

Molecule `O=C(COc1ccccc1F)Nc1ccc2c(c1)CN(C(=O)c1ccco1)CC2` registered an RP-LC retention time of 770 s.

In turn, `O=C(COc1ccccc1)N1CCN(Cc2noc3ccccc23)CC1` registered an RP-LC retention time of 708 s.

In turn, `Cc1cc(C)c(C(=O)N2CCC(CC(=O)NC(c3cccs3)C(C)C)CC2)[nH]1` (centres undefined) showed an RP-LC retention time of 863 s.

Molecule `CCCCOc1ccc(-c2ccc(=O)n(Cc3nc(-c4ccccc4Br)no3)n2)cc1` gave an RP-LC retention time of 1260 s.

The molecule `CCOC(=O)COC(=O)c1cn(-c2cccc(F)c2)c(=O)c2ccccc12` returned an RP-LC retention time of 1020 s.

On to `COc1ccc(-c2noc(C3CCCN3C(=O)c3ccc4c(c3)OCO4)n2)cc1OC` (centres undefined), for which the RP-LC retention time worked out at 836 s.

On to `CCC(=O)N(C1CCOCC1)C1CCN(S(=O)(=O)c2ccc(C)c(C)c2)CC1`, for which the RP-LC retention time was found to be 869 s.

The molecule `CS(=O)(=O)NC(=O)c1cc(Cl)c(COc2ccc(Cl)c(Cl)c2)cc1F` registered an RP-LC retention time of 1170 s.

As for `CCc1noc(NC(C)=O)c1-c1ccc(OC)c(S(=O)(=O)Nc2ccc(OC)cc2)c1`, the RP-LC retention time was determined as 749 s.

Consider `Cc1nc2ccn(Cc3ccco3)c(=O)c2cc1C(=O)NCc1ccco1`, for which the RP-LC retention time is 718 s.

For the molecule `OC(CNCc1ccc(-c2ccc(F)cc2)o1)c1ccccc1` (centres undefined), the RP-LC retention time was 687 s.

On to `CCn1nc(C)c(CCN(C)C(=O)Nc2ccccc2C(=O)OC)c1C`, for which the RP-LC retention time is 744 s.

For `CC(Cc1ccco1)NC(=O)c1nc(Nc2ccc(F)cc2)c2ccccc2n1` (centres undefined), the RP-LC retention time turned out to be 855 s.

For `Cc1cc(C2CCCN2C(=O)Nc2cccc(Cl)c2C)on1` (centres undefined), the RP-LC retention time came out at 794 s.

`O=C(CSc1nnc2ccc3ccccc3n12)c1ccc(Cl)cc1` gave an RP-LC retention time of 875 s.

`CS(=O)(=O)N1CCCc2cc(C(=O)N3CCOCC3)ccc21` returned an RP-LC retention time of 654 s.

The molecule `CCN1CCN(C(=O)c2nc(N(CC)CC)c3c(C)cc(C)nc3n2)CC1` returned an RP-LC retention time of 550 s.

Take `CC(=O)c1ccc(NC(=O)CN2C(=O)CCn3nc(-c4cn(C)c5ccccc45)cc32)cc1`: the RP-LC retention time is 791 s.

In turn, `CCOC(=O)COC(=O)c1cn(-c2ccc(CC)cc2)c(=O)c2ccccc12` showed an RP-LC retention time of 737 s.

For the molecule `CC(C)n1c(=O)sc2cc(S(=O)(=O)N3CCC(C(=O)Nc4ccc(Cl)cc4)CC3)ccc21`, the RP-LC retention time is 1050 s.

Turning to `O=C(NCCc1ccc(N2CCCC2)cc1)c1ccccc1`, the RP-LC retention time amounted to 704 s.

In turn, `Cc1ccc(-c2cc3c(=O)n(Cc4noc(CN5CCCCCCC5)n4)ccn3n2)cc1` showed an RP-LC retention time of 757 s.

Consider `Cc1ccc(C)c(CNC(=O)Cc2csc3nc(-c4ccc(C)c(C)c4)cn23)c1`, for which the RP-LC retention time worked out at 930 s.

Molecule `COc1ccc(NC(=O)CN2CCc3c(c(=O)c4cc(C)ccc4n3C)C2)cc1` returned an RP-LC retention time of 599 s.

`O=S(=O)(c1ccccc1)c1nnn2c1nc(N1CCN(c3ccccn3)CC1)c1ccccc12` had an RP-LC retention time of 677 s.

`NC(=O)C1CCN(Cc2nc(Cn3ccn4nc(-c5ccccc5)cc4c3=O)no2)CC1` gave an RP-LC retention time of 618 s.

`O=C(Nc1cccc(N2CCCCC2=O)c1)c1ccc(Br)o1` showed an RP-LC retention time of 680 s.

Molecule `Cc1cccc(S(=O)(=O)N2CCC(n3cnnc3C(C)C)CC2)c1` displayed an RP-LC retention time of 735 s.

In the case of `O=C(c1cn(-c2cc(N3CCSCC3)ncn2)cn1)N1CCCc2ccccc21`, the RP-LC retention time was found to be 780 s.

Molecule `COC(=O)C1C(=O)C2=C(CC1C)Nc1ccccc1NC2c1ccc(Cl)cc1` (centres undefined) showed an RP-LC retention time of 852 s.

The molecule `COc1ccc(S(=O)(=O)N2CCC(c3noc(-c4cccc(C)c4)n3)CC2)cc1` registered an RP-LC retention time of 1170 s.

In turn, `O=C(c1cccc(C(F)(F)F)c1)N1CCN(c2nc(CN3CCOCC3)cs2)CC1` had an RP-LC retention time of 644 s.

Take `CCc1cc(C2CCCN2Cc2cc(OC)c(O)c(OC)c2)on1` (centres undefined): the RP-LC retention time was 575 s.

Molecule `COC(=O)c1cccc(NC(=O)C2CCN(c3c(C#N)cnc4ccccc34)CC2)c1` yielded an RP-LC retention time of 675 s.

Source of the values: the METLIN SMRT retention time set (Domingo-Almenara et al. 2019).
